What follows are compounds tested against T1, Human SGLT2 (hSGLT2) (Homo sapiens, UniProt P31639) (assay: Sodium-dependent glucose transport (14C-AMG uptake) assay in CHO cells stably expressing hSGLT2). Settings: CHO cells expressing hSGLT2, 14C-AMG uptake, 37° C. for 2 h; single determinations; read-out: hSGLT2 Inhibitory Activity IC50.
T1 construct: expressed in transfected cells
T1 sequence (P31639 1-672): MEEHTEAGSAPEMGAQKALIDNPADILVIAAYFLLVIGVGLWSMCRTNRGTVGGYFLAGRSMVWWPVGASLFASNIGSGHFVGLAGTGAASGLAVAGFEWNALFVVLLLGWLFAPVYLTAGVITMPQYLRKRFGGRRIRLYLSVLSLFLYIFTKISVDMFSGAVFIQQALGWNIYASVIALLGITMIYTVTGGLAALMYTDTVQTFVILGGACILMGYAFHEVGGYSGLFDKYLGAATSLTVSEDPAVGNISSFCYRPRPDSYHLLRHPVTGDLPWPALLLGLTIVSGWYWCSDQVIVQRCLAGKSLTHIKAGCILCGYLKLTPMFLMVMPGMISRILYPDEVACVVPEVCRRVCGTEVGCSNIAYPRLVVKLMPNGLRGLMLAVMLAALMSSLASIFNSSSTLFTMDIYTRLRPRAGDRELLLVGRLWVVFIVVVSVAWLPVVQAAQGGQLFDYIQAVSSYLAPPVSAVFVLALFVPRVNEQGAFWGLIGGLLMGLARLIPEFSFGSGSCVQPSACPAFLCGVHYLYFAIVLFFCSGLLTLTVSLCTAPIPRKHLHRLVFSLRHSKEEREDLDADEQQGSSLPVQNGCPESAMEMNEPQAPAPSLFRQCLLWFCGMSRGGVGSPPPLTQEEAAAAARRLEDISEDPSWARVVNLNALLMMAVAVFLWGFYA
Format: cell-based
Description: Cloning and Cell Line Construction for Human SGLT2
Human SGLT2 (hSGLT2) gene was amplified by PCR from cDNA-Human Adult Normal Tissue Kidney (Invitrogen). The hSGLT2 sequence was cloned into pcDNA3.1(+) for mammalian expression and were stably transfected into chinese hamster ovary (CHO) cells. SGLT2-expressing clones were selected based on resistance to G418 antibiotic (Geneticin) and activity in the ^14C-α-methyl-D-glucopyranoside (^14C-AMG) uptake assay.
Inhibitory Effects on Human SGLT2 Activities
For sodium-dependent glucose transport assay, cells expressing hSGLT2 were seeded into a 96-well culture plate at a density of 5×10^4 cells/well in RPMI medium 1640 containing 10% fetal bovine serum. The cells were used 1 day after plating. They were incubated in pretreatment buffer (10 mM HEPES, 5 mM Tris, 140 mM choline chloride, 2 mM KCl, 1 mM CaCl2, and 1 mM MgCl2, pH 7.4) at 37° C. for 10 min. They were then incubated in uptake buffer (10 mM HEPES, 5 mM Tris, 140 mM NaCl, 2 mM KCl, 1 mM CaCl2, 1 mM MgCl2, and 1 mM ^14C-nonlabeled AMG, pH 7.4) containing ^14C-labeled (8 μM) and inhibitor or dimethylsulfoxide (DMSO) vehicle at 37° C. for 2 h. Cells were washed twice with washing buffer (pretreatment buffer containing 10 mM AMG at room temperature) and then the radioactivity was measured using a liquid scintillation counter. IC50 was determined by nonlinear regression analysis using GraphPad PRISM [Katsuno, K. et al. J. Pharmacol. Exp. Ther. 2007, 320, 323-330; Han, S. et al. Deabetes, 2008, 57, 1723-1729].

Row | Structure (SMILES) | IC50 [nM]
1 | CCCc1cnc(Cc2cc([C@@H]3O[C@H](CO)C(O)[C@H](O)[C@H]3O)c3ccccc3c2OC)s1 (stereo in doubt) [Example 99, (2R,3R,4R,5R,6S)-2-(Hydroxymethyl)-6-(4-methoxy-3-((5-propylthiazol-2-yl)methyl)naphthalen-1-yl)-tetrahydro-2H-pyran-3,4,5-triol] | 19.2
2 | OC[C@H]1O[C@@H](c2ccc(Cl)c(Cc3ncc(-c4ccsc4)s3)c2)[C@H](O)[C@@H](O)[C@@H]1O [Example 1, (2S,3R,4R,5S,6R)-2-(4-Chloro-3-((5-(thiophen-3-yl)thiazol-2-yl)methyl)phenyl)-6-(hydroxymethyl)-tetrahydro-2H-pyran-3,4,5-triol] | 2
3 | COc1c(Cc2ncc(-c3ccc(F)cc3)s2)cc([C@@H]2O[C@H](CO)[C@@H](O)[C@H](O)[C@H]2O)c2ccccc12 [Example 2, (2S,3R,4R,5S,6R)-2-(3-((5-(4-Fluorophenyl)thiazol-2-yl)methyl)-4-methoxynaphthalen-1-yl)-6-(hydroxymethyl)-tetrahydro-2H-pyran-3,4,5-triol] | 12
4 | OC[C@H]1O[C@@H](c2ccc(Cl)c(C3(c4ncc(-c5ccco5)s4)CC3)c2)[C@H](O)[C@@H](O)[C@@H]1O [Example 3, (2S,3R,4R,5S,6R)-2-(4-Chloro-3-(1-(5-(furan-2-yl)thiazol-2-yl)cyclopropyl)phenyl)-6-(hydroxymethyl)-tetrahydro-2H-pyran-3,4,5-triol] | 47.1
5 | OC[C@H]1O[C@@H](c2ccc(C(F)(F)F)c(Cc3ncc(-c4ccco4)s3)c2)[C@H](O)[C@@H](O)[C@@H]1O [Example 4, (2S,3R,4R,5S,6R)-2-(3-((5-(Furan-2-yl)thiazol-2-yl)methyl)-4-(trifluoromethyl)phenyl)-6-(hydroxymethyl)-tetrahydro-2H-pyran-3,4,5-triol] | 9.73
6 | OC[C@H]1O[C@@H](c2ccc(Cl)c(Cc3ncc(-c4ccco4)s3)c2)[C@H](O)[C@@H](O)[C@@H]1O [Example 5, (2S,3R,4R,5S,6R)-2-(4-Chloro-3-((5-(furan-2-yl)thiazol-2-yl)methyl)phenyl)-6-(hydroxymethyl)-tetrahydro-2H-pyran-3,4,5-triol] | 1.75
7 | OC[C@H]1O[C@@H](c2ccc(Cl)c(Cc3ncc(-c4ccoc4)s3)c2)[C@H](O)[C@@H](O)[C@@H]1O [Example 6, (2S,3R,4R,5S,6R)-2-(4-Chloro-3-((5-(furan-3-yl)thiazol-2-yl)methyl)phenyl)-6-(hydroxymethyl)-tetrahydro-2H-pyran-3,4,5-triol] | 6.25
8 | OC[C@H]1O[C@@H](c2ccc(Cl)c(Cc3ncc(-c4cccs4)s3)c2)[C@H](O)[C@@H](O)[C@@H]1O [Example 7, (2S,3R,4R,5S,6R)-2-(4-Chloro-3-((5-(thiophen-2-yl)thiazol-2-yl)methyl)phenyl)-6-(hydroxymethyl)tetrahydro-2H-pyran-3,4,5-triol] | 3.2
9 | OC[C@H]1O[C@@H](c2ccc(Cl)c(Cc3ncc(-c4ccc(Cl)s4)s3)c2)[C@H](O)[C@@H](O)[C@@H]1O [Example 8, (2S,3R,4R,5S,6R)-2-(4-Chloro-3-((5-(5-chlorothiophen-2-yl)thiazol-2-yl)methyl)phenyl)-6-(hydroxymethyl)tetrahydro-2H-pyran-3,4,5-triol] | 13.3
10 | OC[C@H]1O[C@@H](c2ccc(Cl)c(Cc3ncc(-c4nccs4)s3)c2)[C@H](O)[C@@H](O)[C@@H]1O [Example 9, (2S,3R,4R,5S,6R)-2-(3-(2,5′-Bithiazol-2′-ylmethyl)-4-chlorophenyl)-6-(hydroxymethyl)-tetrahydro-2H-pyran-3,4,5-triol] | 7.48
11 | OC[C@H]1O[C@@H](c2ccc(Cl)c(Cc3ncc(-c4ccccn4)s3)c2)[C@H](O)[C@@H](O)[C@@H]1O [Example 10, (2S,3R,4R,5S,6R)-2-(4-Chloro-3-((5-(pyridin-2-yl)thiazol-2-yl)methyl)phenyl)-6-(hydroxymethyl)-tetrahydro-2H-pyran-3,4,5-triol] | 6.86

From US8586550B2, “Thiazole derivatives as SGLT2 inhibitors and pharmaceutical composition comprising same” (Green Cross Corporation, priority 2010, dated 2013)
